# Experimental data published in ChEMBL document CHEMBL1201862, “PubChem BioAssay data set” (2004).
# The source made the active and inactive calls.
# Assays:
# Escherichia coli = test: microbe, parasite or virus in culture
# [1] = target: G-protein coupled receptor 55 (Homo sapiens, UniProt Q9Y2T6); test: GPR55 antagonists blocking LPI-driven arrestin recruitment, primary screen, imaging, U2OS, beta-arrestin-GFP, LPI agonist (AID 2013); format: functional;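 also: antagonist potency measured as reduced agonist-driven arrestin aggregation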
# BJ [2] = test: cytotoxicity toward BJ-TERT fibroblasts, dose response, cell-based, RAS-independent, luminescence (AID 1933); format: functional; settings: Homo sapiens
# [3] = growth suppression of PTEN-null colon cells, dose response, cell-based, HCT116 PTEN knockout (AID 1047); format: functional;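 also: HCT116 colon tumor cells with PTEN knocked out; cells exposed to compound for 60 hours before readout; potency for loss of cell viability measured by luminescence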
# BJ [4] = test: cells; format: functional, cell-based; settings: Homo sapiens, read-out: EC50
# [5] = cytotoxicity in HEK-293T cells, dose response, cytotoxicity control for TCR NF-kB inhibitor project, luminescence, T-cell screen hits (AID 489026); format: functional, cell-based;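 also: cells exposed to compound about 14 hours before the viability readout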
# BJ [6] = test: cytotoxicity toward BJ-TERT-LT-ST fibroblasts, dose response, cell-based, RAS-independent, luminescence (AID 1935); format: functional; settings: Homo sapiens;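 also: BJ fibroblasts immortalized with TERT plus LT and ST oncogenes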
# [7] = growth suppression of beta-catenin-knockout colon cells, dose response, cell-based, HCT116, human colon tumor (AID 1045); format: functional;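 also: HCT116 colon tumor cells with beta catenin knocked out; cells exposed to compound for 60 hours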
# [8] = cytotoxicity toward DRD oncogenic fibroblasts, dose response, cell-based, non-viral oncogenic, luminescence (AID 1934); format: functional; settings: Homo sapiens
# [9] = target: T1, Alkaline phosphatase, tissue-nonspecific isozyme (Homo sapiens, UniProt P05186); test: human TNAP enzyme inhibitors, SAR follow-up, biochemical, luminescent, dose response (AID 1056)
# T1 sequence (P05186 whole entry): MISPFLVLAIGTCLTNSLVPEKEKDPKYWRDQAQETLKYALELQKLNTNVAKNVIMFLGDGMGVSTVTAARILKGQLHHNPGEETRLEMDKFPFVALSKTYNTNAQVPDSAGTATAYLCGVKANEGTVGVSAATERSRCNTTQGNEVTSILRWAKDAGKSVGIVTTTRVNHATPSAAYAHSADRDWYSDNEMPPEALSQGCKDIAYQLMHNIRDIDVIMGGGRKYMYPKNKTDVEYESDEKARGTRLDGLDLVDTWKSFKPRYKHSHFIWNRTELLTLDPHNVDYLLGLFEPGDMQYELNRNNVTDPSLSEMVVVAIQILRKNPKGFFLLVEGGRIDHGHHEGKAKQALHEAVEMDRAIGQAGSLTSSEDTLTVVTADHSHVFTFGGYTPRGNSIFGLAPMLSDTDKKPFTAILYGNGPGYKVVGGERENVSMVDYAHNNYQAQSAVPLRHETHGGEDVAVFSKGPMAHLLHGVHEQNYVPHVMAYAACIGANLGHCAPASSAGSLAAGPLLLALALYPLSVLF
# [10] = target: Glyceraldehyde-3-phosphate dehydrogenase (Homo sapiens, UniProt P04406)
# Cytochrome P450 3A4 = Cytochrome P450 3A4 (Homo sapiens, UniProt P08684);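 also: CYP3A4 tested as one member of a cytochrome P450 panel screen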
# Paired box protein Pax-8 = Paired box protein Pax-8 (Homo sapiens, UniProt Q06710); test: inhibitors of PAX8-driven TPO luciferase reporter, dose response, RMG-I cells, cherry-pick (AID 687027); format: functional, cell-based;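 also: luciferase reporter driven by Pax8 target thyroperoxidase promoter measured by SteadyGlo luminescence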
# [11] = target: T2, Heat shock factor protein 1 (Mus musculus, UniProt P38532); test: inhibition of MG132-induced HSE-luciferase signal, confirmation, cell-based, NIH3T3, luminescence, dose retest (AID 2382); format: functional;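 also: NIH3T3 fibroblasts with HSF1-driven luciferase reporter stressed by proteasome inhibitor MG132; luminescence from HSF1-driven luciferase expression after 8 hours of MG132 stress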
# T2 sequence (P38532 whole entry): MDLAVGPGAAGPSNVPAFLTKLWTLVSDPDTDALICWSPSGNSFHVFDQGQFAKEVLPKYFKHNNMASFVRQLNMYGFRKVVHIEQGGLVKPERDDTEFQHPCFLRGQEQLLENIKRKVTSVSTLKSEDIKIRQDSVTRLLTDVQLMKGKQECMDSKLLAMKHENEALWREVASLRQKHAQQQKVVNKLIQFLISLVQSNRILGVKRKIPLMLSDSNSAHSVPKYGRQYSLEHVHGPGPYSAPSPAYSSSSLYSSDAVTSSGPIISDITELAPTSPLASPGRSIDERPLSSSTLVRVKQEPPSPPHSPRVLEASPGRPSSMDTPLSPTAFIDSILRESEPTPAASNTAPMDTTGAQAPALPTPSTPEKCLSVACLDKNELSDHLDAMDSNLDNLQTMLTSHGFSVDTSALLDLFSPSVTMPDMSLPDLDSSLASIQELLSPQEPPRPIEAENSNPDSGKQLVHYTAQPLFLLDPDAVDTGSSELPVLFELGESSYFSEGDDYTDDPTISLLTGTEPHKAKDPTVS
# [12] = target: T3, Ubiquitin-conjugating enzyme E2 N (Homo sapiens, UniProt P61088); format: functional;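 also: Dose-response confirmation in a TR-FRET assay detecting UBC13-driven polyubiquitin chain formation, inhibition measured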
# T3 sequence (P61088 whole entry): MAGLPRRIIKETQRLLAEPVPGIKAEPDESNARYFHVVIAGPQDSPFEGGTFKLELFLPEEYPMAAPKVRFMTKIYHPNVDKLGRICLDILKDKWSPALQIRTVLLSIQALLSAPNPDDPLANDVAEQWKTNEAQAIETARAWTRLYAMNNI
# [13] = nonselective inhibitors of cellular cAMP signaling, dose response, counter-screen for MC4R biased antagonist project, cell-based, TR-FRET cAMP detection (AID 602305); format: functional;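 also: U2OS cells stimulated with forskolin near its EC80 as the cAMP inducer; potency is for inhibition of forskolin-stimulated cAMP signaling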
# CAAX prenyl protease 2 = target: T4, CAAX prenyl protease 2 (Saccharomyces cerevisiae S288c, UniProt Q03530); format: biochemical
# T4 sequence (Q03530 whole entry): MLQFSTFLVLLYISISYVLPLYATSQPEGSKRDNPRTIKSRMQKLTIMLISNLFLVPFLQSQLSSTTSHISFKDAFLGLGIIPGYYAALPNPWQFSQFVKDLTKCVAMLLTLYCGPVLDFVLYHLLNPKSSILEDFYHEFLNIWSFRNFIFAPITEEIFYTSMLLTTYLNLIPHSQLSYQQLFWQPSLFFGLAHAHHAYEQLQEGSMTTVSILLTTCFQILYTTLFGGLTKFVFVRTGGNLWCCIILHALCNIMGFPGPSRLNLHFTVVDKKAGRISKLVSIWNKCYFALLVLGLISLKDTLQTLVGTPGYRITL
# Melanocortin receptor 4 = Melanocortin receptor 4 (Homo sapiens, UniProt P32245); test: MC4R antagonist potency on cAMP, dose response, cell-based, TR-FRET, biased antagonists (AID 602298); format: functional;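 also: antagonist potency against agonist-stimulated cAMP production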
# Fatty acid synthase [14] = target: T5, Fatty acid synthase (Homo sapiens, UniProt P49327); test: FAS thioesterase domain inhibitors, dose response, biochemical, endpoint fluorescence intensity, uHTS hits (AID 624327); format: functional;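 also: fluorescence from hydrolysis of an O-methyl fluorescein acyl ester substrate by the enzyme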
# Fatty acid synthase [15] = target: T5, Fatty acid synthase; test: FAS thioesterase domain inhibitors, dose response, biochemical, kinetic fluorescence intensity (AID 624326); format: functional;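 also: rate of fluorescence rise from hydrolysis of a fluorogenic O-methyl fluorescein ester substrate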
# Sequence of Cytochrome P450 3A4 (P08684 whole entry): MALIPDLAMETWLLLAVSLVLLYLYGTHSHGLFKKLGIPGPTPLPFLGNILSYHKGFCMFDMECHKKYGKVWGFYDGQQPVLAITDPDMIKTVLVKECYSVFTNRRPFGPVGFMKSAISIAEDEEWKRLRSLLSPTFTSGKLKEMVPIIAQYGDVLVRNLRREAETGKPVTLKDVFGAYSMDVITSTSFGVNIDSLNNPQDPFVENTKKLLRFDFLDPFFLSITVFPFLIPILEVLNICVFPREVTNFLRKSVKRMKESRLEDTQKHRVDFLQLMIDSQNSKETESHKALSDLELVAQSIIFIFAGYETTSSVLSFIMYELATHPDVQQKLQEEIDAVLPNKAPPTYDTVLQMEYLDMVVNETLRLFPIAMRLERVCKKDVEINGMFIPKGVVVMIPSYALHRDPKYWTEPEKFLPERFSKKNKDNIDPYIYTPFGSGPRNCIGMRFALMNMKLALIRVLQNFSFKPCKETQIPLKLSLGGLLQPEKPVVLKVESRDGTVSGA
# Sequence of G-protein coupled receptor 55 (Q9Y2T6 whole entry): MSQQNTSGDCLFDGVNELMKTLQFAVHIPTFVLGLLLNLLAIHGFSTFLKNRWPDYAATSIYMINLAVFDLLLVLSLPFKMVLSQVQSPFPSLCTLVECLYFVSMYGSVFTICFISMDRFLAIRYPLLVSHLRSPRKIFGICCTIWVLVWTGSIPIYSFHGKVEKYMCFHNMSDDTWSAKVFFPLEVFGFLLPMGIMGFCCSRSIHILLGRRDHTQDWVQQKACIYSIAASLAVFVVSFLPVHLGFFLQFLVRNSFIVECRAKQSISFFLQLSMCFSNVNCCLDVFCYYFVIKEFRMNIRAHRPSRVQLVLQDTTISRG
# Sequence of Melanocortin receptor 4 (P32245 whole entry, the tested form may be a part): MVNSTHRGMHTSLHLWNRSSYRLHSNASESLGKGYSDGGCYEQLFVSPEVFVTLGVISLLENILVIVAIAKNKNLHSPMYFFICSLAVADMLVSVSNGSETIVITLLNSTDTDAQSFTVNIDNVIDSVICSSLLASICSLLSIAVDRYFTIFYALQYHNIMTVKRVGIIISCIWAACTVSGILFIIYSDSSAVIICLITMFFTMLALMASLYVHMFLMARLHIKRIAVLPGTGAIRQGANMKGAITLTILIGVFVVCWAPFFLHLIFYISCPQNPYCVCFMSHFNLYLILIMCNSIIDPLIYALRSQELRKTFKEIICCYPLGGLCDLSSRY
# T5 sequence (P49327 whole entry, the tested form may be a part): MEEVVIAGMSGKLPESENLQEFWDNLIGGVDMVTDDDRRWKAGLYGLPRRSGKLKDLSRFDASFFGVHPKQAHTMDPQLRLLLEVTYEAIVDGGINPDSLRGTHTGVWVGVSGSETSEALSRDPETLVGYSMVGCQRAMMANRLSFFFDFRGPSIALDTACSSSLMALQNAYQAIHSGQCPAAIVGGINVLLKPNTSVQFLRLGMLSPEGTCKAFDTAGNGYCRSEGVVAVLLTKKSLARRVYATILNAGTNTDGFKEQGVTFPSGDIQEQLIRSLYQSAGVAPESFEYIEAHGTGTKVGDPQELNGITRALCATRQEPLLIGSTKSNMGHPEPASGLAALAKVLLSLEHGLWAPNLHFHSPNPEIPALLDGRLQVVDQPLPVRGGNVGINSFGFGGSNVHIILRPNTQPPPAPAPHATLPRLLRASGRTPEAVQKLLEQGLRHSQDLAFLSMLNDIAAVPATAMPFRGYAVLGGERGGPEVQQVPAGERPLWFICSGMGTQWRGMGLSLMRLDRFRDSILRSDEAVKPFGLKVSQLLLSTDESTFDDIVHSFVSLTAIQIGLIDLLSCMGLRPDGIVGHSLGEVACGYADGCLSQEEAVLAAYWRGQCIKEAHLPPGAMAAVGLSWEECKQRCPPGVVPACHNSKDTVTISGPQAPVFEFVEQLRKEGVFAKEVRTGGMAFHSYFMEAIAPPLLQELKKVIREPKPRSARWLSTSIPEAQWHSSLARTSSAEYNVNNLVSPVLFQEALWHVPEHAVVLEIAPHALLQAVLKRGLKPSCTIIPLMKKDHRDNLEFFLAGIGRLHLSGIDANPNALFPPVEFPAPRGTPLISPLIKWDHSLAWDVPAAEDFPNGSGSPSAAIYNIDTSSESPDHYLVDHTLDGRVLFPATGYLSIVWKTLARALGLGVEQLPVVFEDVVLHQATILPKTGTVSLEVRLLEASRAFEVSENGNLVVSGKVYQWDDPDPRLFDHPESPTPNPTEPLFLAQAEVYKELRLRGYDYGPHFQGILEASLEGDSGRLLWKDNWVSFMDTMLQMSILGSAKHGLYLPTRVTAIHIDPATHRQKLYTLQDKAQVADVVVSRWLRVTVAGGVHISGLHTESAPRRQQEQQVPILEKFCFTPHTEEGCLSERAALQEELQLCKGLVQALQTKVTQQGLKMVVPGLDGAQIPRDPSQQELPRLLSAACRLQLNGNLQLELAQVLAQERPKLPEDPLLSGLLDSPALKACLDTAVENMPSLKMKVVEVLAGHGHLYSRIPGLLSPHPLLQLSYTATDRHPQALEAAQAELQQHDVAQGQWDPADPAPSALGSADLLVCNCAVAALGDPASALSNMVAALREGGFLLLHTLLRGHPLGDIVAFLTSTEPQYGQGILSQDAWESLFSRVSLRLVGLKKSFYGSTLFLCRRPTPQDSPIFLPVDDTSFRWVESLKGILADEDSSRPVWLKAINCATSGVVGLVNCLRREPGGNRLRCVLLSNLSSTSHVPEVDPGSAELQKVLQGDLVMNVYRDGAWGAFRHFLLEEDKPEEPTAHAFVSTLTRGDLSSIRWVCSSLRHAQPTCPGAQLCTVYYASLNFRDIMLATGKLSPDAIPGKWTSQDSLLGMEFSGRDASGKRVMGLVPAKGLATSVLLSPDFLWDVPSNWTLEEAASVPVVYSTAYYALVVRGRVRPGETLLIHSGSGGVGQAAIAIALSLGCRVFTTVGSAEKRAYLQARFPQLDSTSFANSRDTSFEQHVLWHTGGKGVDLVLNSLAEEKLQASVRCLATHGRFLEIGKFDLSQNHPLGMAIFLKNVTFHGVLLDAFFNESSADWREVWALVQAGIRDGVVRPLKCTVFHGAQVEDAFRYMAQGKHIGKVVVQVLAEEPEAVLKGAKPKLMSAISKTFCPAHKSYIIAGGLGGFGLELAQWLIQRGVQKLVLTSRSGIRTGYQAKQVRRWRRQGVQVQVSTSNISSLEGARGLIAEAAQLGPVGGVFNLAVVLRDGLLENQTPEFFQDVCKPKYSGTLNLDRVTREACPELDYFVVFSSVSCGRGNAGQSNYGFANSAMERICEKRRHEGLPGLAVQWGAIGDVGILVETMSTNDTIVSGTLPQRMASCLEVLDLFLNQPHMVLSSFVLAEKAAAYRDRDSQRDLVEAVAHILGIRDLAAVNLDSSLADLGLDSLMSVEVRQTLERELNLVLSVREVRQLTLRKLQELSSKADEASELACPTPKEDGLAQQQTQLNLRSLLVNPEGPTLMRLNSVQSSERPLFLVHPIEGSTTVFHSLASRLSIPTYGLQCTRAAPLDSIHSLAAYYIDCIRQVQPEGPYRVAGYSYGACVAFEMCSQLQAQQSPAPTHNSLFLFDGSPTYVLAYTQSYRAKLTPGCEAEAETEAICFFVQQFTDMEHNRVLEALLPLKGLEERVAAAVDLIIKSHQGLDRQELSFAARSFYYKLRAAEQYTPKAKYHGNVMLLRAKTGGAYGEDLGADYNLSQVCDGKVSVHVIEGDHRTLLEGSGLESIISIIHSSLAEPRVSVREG
# Sequence of Glyceraldehyde-3-phosphate dehydrogenase (P04406 whole entry): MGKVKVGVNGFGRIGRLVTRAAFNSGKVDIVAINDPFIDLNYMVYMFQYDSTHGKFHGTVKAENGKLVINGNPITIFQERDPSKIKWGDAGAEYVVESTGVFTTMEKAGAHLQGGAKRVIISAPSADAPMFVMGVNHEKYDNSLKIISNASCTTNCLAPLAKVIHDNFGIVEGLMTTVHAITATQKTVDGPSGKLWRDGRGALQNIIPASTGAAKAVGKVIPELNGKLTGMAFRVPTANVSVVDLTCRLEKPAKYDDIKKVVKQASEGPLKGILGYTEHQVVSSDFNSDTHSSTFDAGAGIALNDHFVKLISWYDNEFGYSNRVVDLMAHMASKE
# Sequence of Paired box protein Pax-8 (Q06710 whole entry): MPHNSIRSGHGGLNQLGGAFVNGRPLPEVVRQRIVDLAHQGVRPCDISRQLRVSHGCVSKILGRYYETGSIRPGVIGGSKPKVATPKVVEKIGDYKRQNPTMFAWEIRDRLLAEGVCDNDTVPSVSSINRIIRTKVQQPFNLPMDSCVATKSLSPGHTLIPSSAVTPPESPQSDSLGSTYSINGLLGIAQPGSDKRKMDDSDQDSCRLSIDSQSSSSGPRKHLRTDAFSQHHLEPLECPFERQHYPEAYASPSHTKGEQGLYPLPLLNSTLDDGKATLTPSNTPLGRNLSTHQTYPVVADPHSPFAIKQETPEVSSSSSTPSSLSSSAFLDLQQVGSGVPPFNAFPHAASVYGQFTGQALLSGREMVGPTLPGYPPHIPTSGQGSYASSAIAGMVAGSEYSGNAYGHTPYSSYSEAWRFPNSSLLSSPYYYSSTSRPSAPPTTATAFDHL
smiles,measurement,setting,value
O=C(O)C1C(=O)NCC1c1ccccc1 (centres undefined),AC50,Escherichia coli,24.3 µM (active)
N#CC1=C2N=C(N)c3ccccc3N2C2=C(C(=O)CCC2)C1c1cccc(Cl)c1 (centres undefined),IC50,[1],8.48 µM (active)
COc1cc(C(=O)N2CCN(c3cccc(C)c3C)CC2)cc(OC)c1OC,EC50,BJ [2],7.81 µM (inconclusive)
same,EC50,[3],0.876 µM (active)
same,EC50,BJ [4],20.4 µM (active)
same,IC50,[5],> 80 µM (inactive)
same,EC50,BJ [6],4.12 µM (active)
same,EC50,[7],0.721 µM (active)
same,EC50,[8],11.8 µM (inconclusive)
COc1cccc(S(=O)(=O)Nc2ccncn2)c1,IC50,[9],> 100 µM (inactive)
same,IC50,[10],> 100 µM (not active)
CC1(C)CC(=O)c2cnc(N)nc2C1,AC50,Cytochrome P450 3A4,inconclusive
C/N=c1\scc(-c2cccs2)n1/N=C/c1ccccc1O,AC50,Paired box protein Pax-8,< 0.26 µM (active)
same,IC50,[5],> 80 µM (inactive)
same,EC50,[11],< 0.16 µM (active)
CCOC(=O)c1c(C(C)(C)C)oc2ccc(O)cc12,IC50,[1],4.47 µM (active)
same,IC50,[12],> 20 µM (inactive)
CCn1ncc(C2=NOC(C(=O)NCc3ccccc3)C2)c1C (centres undefined),IC50,[5],> 80 µM (inactive)
Cc1c(C(=O)O)nnn1-c1ccc(Cl)cc1,IC50,[9],> 100 µM (inactive)
same,IC50,[10],> 100 µM (not active)
O=C(NC(=S)Nc1ccccc1N1CCOCC1)c1ccc(Br)cc1,IC50,[1],1.08 µM (active)
O=C(Nc1ccccc1-c1nc2ccccc2[nH]1)c1ccc(N2C(=O)CCC2=O)cc1,IC50,[13],> 64.6 µM (inactive)
same,AC50,CAAX prenyl protease 2,75.6 µM (active)
same,IC50,Melanocortin receptor 4,> 21.5 µM (inactive)
COc1ccc(CNC(C)(C)C)cc1Cl.Cl,AC50,Cytochrome P450 3A4,inconclusive
Cc1ccc(-c2cc(C(=O)OCC(=O)N(C)c3c(N)n(Cc4ccccc4)c(=O)[nH]c3=O)c3ccccc3n2)o1,AC50,Escherichia coli,25.8 µM (active)
CC(C)(CNC(=O)c1ccc([N+](=O)[O-])c(Cl)c1)CNC(=O)c1ccc([N+](=O)[O-])c(Cl)c1,IC50,[13],> 64.6 µM (inactive)
same,IC50,Fatty acid synthase [14],5.44 µM (active)
same,IC50,[1],3.11 µM (active)
same,IC50,Fatty acid synthase [15],6.06 µM (active)
same,IC50,Melanocortin receptor 4,> 64.6 µM (inactive)
CS(=O)(=O)N1CCC2(CC1)CN(C(c1ccccc1)c1ccccc1)C2,AC50,Cytochrome P450 3A4,inconclusive
Cc1nc2scc(-c3ccccc3)c2c(=O)n1/N=C/c1ccco1,AC50,Escherichia coli,23.4 µM (active)
CC(C)NC(=O)N1CCC2(CC1)CCN(C(=O)Oc1ccccc1)CC2,AC50,Cytochrome P450 3A4,inconclusive
